# From patent publication US12484608B2, “Nutritional composition and infant formula for promoting de novo myelination” (SOCIETE DES PRODUITS NESTLE S.A., priority 2015, dated 2025)
# Key:
# brain myelination = assay: Cross-sectional correlation of infant formula nutrient content with brain myelin content (mcDESPOT MRI, myelin water fraction); format: in vivo, human; conditions: formula-fed children up to 5 years
# Description: MRI (Magnetic Resonance Imaging): MRI brain scans of infants and children between 0 and 5 years were acquired using a white matter imaging technique. This technique provides a quantitative measure, the Myelin Water Fraction (MWF), which is a surrogate marker of myelin content in the brain. When mapped as a function of time across early childhood, myelination trajectories can be generated.
# Each infant was scanned using the mcDESPOT (multicomponent Driven Equilibrium Single Pulse Observation of T1 and T2) white matter imaging technique Deoni et al. (Magn. Reson. Med. 2008, 60:1372-1387), which provides a quantitative measure of the myelin water fraction (MWF)—a measure of myelin content—at each point throughout the brain. All infants were scanned during natural (i.e. non-sedated) sleep using acoustically-muffled mcDESPOT imaging protocols. Total imaging times ranged from 19 minutes for the youngest toddlers to 24 minutes for the older 4 year-old children.
# Following image alignment, non-brain signal removal, and correction for main and transmit magnetic field (B0 and B1) inhomogeneities, a three-pool signal model (comprising the myelin-associated water; intra-extra axonal water; and a non-exchanging free-water pool) was fit to the mcDESPOT data to derive voxel-wise MWF maps.
# Each child's map was then non-linearly aligned to a study specific template. White matter masks, corresponding to 5 bilateral regions (frontal, temporal, occipital, parietal, and cerebellar WM) as well as the body, genu, and splenium of the corpus callosum were created from common databases, registered to the common template, and superimposed onto each child's MWF map. Mean values for each region were then determined for each child and used for subsequent developmental analysis and trajectory modeling.
# From the cohort described above, children up to 5 years of age that were fed different infant formulas during infancy were included in a large correlation analysis to examine the relationship between formula nutrient composition and brain myelination. The 5 most frequently used formulas in that cohort were analyzed for their nutritional composition. A single general linear model (GLM) was constructed that modeled all quantified nutrients and child age.
# Spearman rank correlations were then calculated between the nutrient content and myelin content value (adjusted for child age) at each image voxel, or point within the brain. Significance was defined as p<0.05 corrected for type 1 error using a cluster based correction approach. An association or trend was defined as p<0.15. […] To reduce the number of nutritional components in the model, we examined the inter-nutritional correlation. Using a conservative threshold of 0.9, we excluded nutritional components that were highly correlated with each other across the various formulas.
# [1] = tested on: neural progenitor cell (NPCs); assay: Neurosphere counts in 96-well plates; format: cell-based, mouse; conditions: control 103
# Experimental: Generation of neural progenitor cell (NPCs) libraries:
# dissociation of E14 mouse neocortex
# Plating Cells in 96-Well Plates for Neurosphere Counts and Diameters Only
# 3-4 mLs of cells were taken out of the tilted plate and add to a 15 ml conical. Some of the remaining media was used to rinse down the plate. All remaining media was drawn up and put into a 15 ml conical tube, and Spun at 130G for 5 min. All media was removed. The cells were gently resuspended in 5 mls of warm PBS, spun again. PBS was then removed and the cells were then gently resuspended in 500 μl of Accutase(Corning™ Accutase™ Cell Detachment Solution, #25058CI). The cells were then Pipetted gently with a 1000p tip to break up pellet, and then they were placed in a shaking water bath for 5-10 minutes, after which time they were swirled by hand frequently.
# 1 ml was taken off to count cells. The cells were spun again. Media was removed from the cell pellet. 1 mls of prepared media (no GF) was added. The cells were pipetted with a 1000 ul pipette. Cell dilutions (24,000
# cells/well) in 250 μL of appropriate media were made. Cells were swirled daily and grown for 2 days.
# 1. The cells were fixed in the hood. For fixation and subsequent immunohistochemical analysis 100 ul of medium was removed and 100 ul 4% PFA in 1×PBS was added to fix the cells whilst counting the neurospheres by hand, then the cells were washed twice with 1×PBS for 5 min, and left in 1×PBS, wrapped in foil and left overnight at 4° C., or Dapi staining was carried out. 100 uL of PBS was removed and 100 uL
# in AB staining solution for five min. Imaging was carried out using a GE Cytell imager or LSM 710, Zeiss confocal microscope and the diameters of neurospheres with ImageJ software (National Institutes of Health) was analysed.
# [2] = tested on: neural progenitor cell (NPCs); assay: Monolayer culture NPC proliferation assay; format: cell-based, mouse; conditions: control 262
# Experimental: Monolayer Culture NPC Proliferation Assay (Incorporation of EdU—S Phase Marker
# After 24 h, it was ensured that cells had attached to the plate then the medium was carefully removed. 500 μL of compound media plus GF.was added. The cells were cultured for 3 days in appropriate media.
# EDU incorporation was measured using Click-iT® EdU Alexa Fluor® 555 Imaging Kit
# At the end of day 3 EdU was added to each well at 10 μM for 30 minutes prior to fixation.
# For fixation and subsequent immunohistochemical analysis, the medium was removed, the cells were rinsed once with 1×PBS for 5 min, and fixed with 4% PFA in 1×PBS for 15 min at 4° C., then the cells were washed twice with 1×PBS for 5 min, left in 1×PBS, wrapped in foil and leave overnight at 4° C., or staining was proceeded with.
# serum, 1×PBS, and 0.1% triton X) added to cover the bottom, the block was kept at room temp for 1 hour. The cells were stained for EDU. The cells were Incubated for 30 min at room temp, in the dark. The cells were washed with 1×PBS and stained with Dapi 1:5000 ul for 15 min. The cells were washed once with 1×PBS, then left in PBS at 4° C., or Imaged immediately using a GE Cytell imager (cell viability
# [3] = high dose sphingomyelin (Dose 3: 1 μm)
# [4] = low dose sphingomyelin (Dose 1: 10 nM)
# [5] = med dose sphingomyelin (Dose 2: 100 nM)
Compound,association with myelination (myelin water fraction) over time in the brain (brain myelination),also measured
vitamin B12,an association with myelination (myelin water fraction) was observed over time in the brain,
iron,an association with myelination (myelin water fraction) was observed over time in the brain,
phosphatidylcholine,an association with myelination (myelin water fraction) was observed over time in the brain,
sphingomyelin,an association with myelination (myelin water fraction) was observed over time in the brain,"number of neurospheres, Average (Mean) [1, 3]: 219; number of neurospheres, Average (Mean) [1, 4]: 94; number of neurospheres, Average (Mean) [1, 5]: 121; neuronal proliferation, DAPI [2, 3]: 305; neuronal proliferation, DAPI [2, 4]: 280; neuronal proliferation, DAPI [2, 5]: 314"
[Ca+2] [calcium],an association with myelination (myelin water fraction) was observed over time in the brain,
[P] [phosphorus],an association with myelination (myelin water fraction) was observed over time in the brain,
[Mg+2] [magnesium],an association with myelination (myelin water fraction) was observed over time in the brain,
[Zn] [zinc],an association with myelination (myelin water fraction) was observed over time in the brain,
phosphatidylinositol,an association with myelination (myelin water fraction) was observed over time in the brain,
"CCCCC/C=C\C/C=C\C/C=C\C/C=C\CCCC(=O)O [AA, arachidonic acid]",an association with myelination (myelin water fraction) was observed over time in the brain,
